Publication PMC11396129, “Oxindole–benzothiazole hybrids as CDK2 inhibitors and anticancer agents: design, synthesis and biological evaluation” (BMC Chemistry, 2024)

Columns and labels:
Type in all cases: cell-based, human
HCT-15 = assay: NCI 60 panel growth inhibition (SRB), colon cancer; details: HCT-15, 10 μM
Protocol: (§1) Screening of cytotoxic activity against a panel of sixty human tumor cell lines The selected compounds by NCI were evaluated for their anticancer activity in a two- stage process. […] Then, the output from the single dose screen is reported as a mean graph. […] Assay protocol. […] For a typical screening experiment, cells are inoculated into 96 well microtiter plates in 100 µL at plating densities ranging from 5000 to 40,000 cells/well depending on the doubling time of individual cell lines. […] After 24 h, two plates of each cell line are fixed in situ with TCA, to represent a measurement of the cell population for each cell line at the time of drug addition (Tz). The experimental drugs are solubilized in dimethyl sulfoxide at 400-fold the desired final maximum test concentration and stored frozen prior to use. At the time of drug addition, an aliquot of frozen concentrate is thawed and diluted to twice the desired final maximum test concentration with complete medium containing 50 µg/mL gentamicin. Additional four, 10-fold or ½ log serial dilutions are made to provide a total of five drug concentrations plus control. […] For adherent cells, the assay is terminated by the addition of cold TCA. […] The supernatant is discarded, and the plates are washed five times with tap water and air dried. […] Using the seven absorbance measurements [time zero, (Tz), control growth, (C), and test growth in the presence of drug at the five concentration levels (Ti)], the percentage growth is calculated at each of the drug concentrations levels. Percentage growth inhibition is calculated as: [(Ti Tz)/(C–Tz)] x 100 for concentrations for which Ti>/=Tz and [(Ti-Tz)/Tz] x 100 for concentrations for which Ti < Tz. Three dose response parameters are calculated for each experimental agent. […] The drug concentration resulting in total growth inhibition (TGI) is calculated from Ti = Tz. […] Values are calculated for each of these three parameters if the level of activity is reached; however, if the effect is not reached or is exceeded, the value for that parameter is expressed as greater or less than the maximum or minimum concentration tested.

HCT-116 = assay: NCI 60 panel growth inhibition (SRB), colon cancer; details: HCT-116, 10 μM
Protocol: as §1

HCC-2998 = assay: NCI 60 panel growth inhibition (SRB), colon cancer; details: HCC-2998, 10 μM
Protocol: as §1

HT29 = assay: NCI 60 panel growth inhibition (SRB), colon cancer; details: HT29, 10 μM
Protocol: as §1

SW-620 = assay: NCI 60 panel growth inhibition (SRB), colon cancer; details: SW-620, 10 μM
Protocol: as §1

KM12 = assay: NCI 60 panel growth inhibition (SRB), colon cancer; details: KM12, 10 μM
Protocol: as §1

SR = assay: NCI 60 panel growth inhibition (SRB), leukemia; details: 10 μM
Method in brief: (§2)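 Cells were plated at 5000–40,000/well and drug was added after 24 h at five concentrations (10-fold or ½ log dilutions), with TCA-fixed time-zero plates as reference. Growth was measured by SRB absorbance, percentage growth was computed against time-zero and control, and TGI was taken at Ti = Tz.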

MOLT-4 = assay: NCI 60 panel growth inhibition (SRB), leukemia; details: MOLT-4, 10 μM
Method in brief: as §2

K-562 = assay: NCI 60 panel growth inhibition (SRB), leukemia; details: K-562, 10 μM
Method in brief: as §2

SK-MEL-28 = assay: NCI 60 panel growth inhibition (SRB), melanoma; details: SK-MEL-28, 10 μM
Protocol: as §1

UACC-62 = assay: NCI 60 panel growth inhibition (SRB), melanoma; details: UACC-62, 10 μM
Protocol: as §1

SK-MEL-2 = assay: NCI 60 panel growth inhibition (SRB), melanoma; details: SK-MEL-2, 10 μM
Protocol: as §1

SK-MEL-5 = assay: NCI 60 panel growth inhibition (SRB), melanoma; details: SK-MEL-5, 10 μM
Protocol: as §1

MALME-3M = assay: NCI 60 panel growth inhibition (SRB), melanoma; details: 10 μM
Protocol: as §1

M14 = assay: NCI 60 panel growth inhibition (SRB), melanoma; details: M14, 10 μM
Protocol: as §1

UACC-257 = assay: NCI 60 panel growth inhibition (SRB), melanoma; details: UACC-257, 10 μM
Protocol: as §1

MDA-MB-435 = assay: NCI 60 panel growth inhibition (SRB), melanoma; details: MDA-MB-435, 10 μM
Protocol: as §1

LOX IMVI = assay: NCI 60 panel growth inhibition (SRB), melanoma; details: 10 μM
Protocol: as §1

PC-3 = assay: NCI 60 panel growth inhibition (SRB), prostate cancer; details: PC-3, 10 μM
Protocol: as §1

DU-145 = assay: as above; details: DU-145, 10 μM
Protocol: as §1

SF-268 = assay: NCI 60 panel growth inhibition (SRB), CNS cancer; details: SF-268, 10 μM
Protocol: as §1

SF-295 = assay: NCI 60 panel growth inhibition (SRB), CNS cancer; details: SF-295, 10 μM
Protocol: as §1

SNB-75 = assay: NCI 60 panel growth inhibition (SRB), CNS cancer; details: SNB-75, 10 μM
Protocol: as §1

SNB-19 = assay: NCI 60 panel growth inhibition (SRB), CNS cancer; details: SNB-19, 10 μM
Protocol: as §1

U251 = assay: NCI 60 panel growth inhibition (SRB), CNS cancer; details: U251, 10 μM
Protocol: as §1

SF-539 = assay: NCI 60 panel growth inhibition (SRB), CNS cancer; details: SF-539, 10 μM
Protocol: as §1

COLO 205 = assay: NCI 60 panel growth inhibition (SRB), colon cancer; details: COLO 205, 10 μM
Protocol: as §1

Structure (SMILES) | GI% (HCT-15) | GI% (HCT-116) [%] | GI% (HCC-2998) | GI% (HT29) | GI% (SW-620) | GI% (KM12) | GI% (SR) | GI% (MOLT-4) | GI% (K-562) | GI% (SK-MEL-28) | GI% (UACC-62) | GI% (SK-MEL-5) | GI% (M14) | GI% (UACC-257) | GI% (MDA-MB-435) | GI% (LOX IMVI) [%] | GI% (DU-145) | GI% (SF-268) | GI% (SF-295) | GI% (SNB-75) | also measured
COc1ccc(-c2nc3ccccc3s2)cc1OCC(=O)NN=C1C(=O)Nc2ccc([N+](=O)[O-])cc21 [Compound 9p, 2-(5-(Benzo[d]thiazol-2-yl)-2-methoxyphenoxy)-N′-(5-nitro-2-oxoindolin-3-ylidene)acetohydrazide] | – (GI% < 5%) | 47.25 | – (GI% < 5%) | – (GI% < 5%) | – (GI% < 5%) | – (GI% < 5%) | – (GI% < 5%) | – (GI% < 5%) | – (GI% < 5%) | – (GI% < 5%) | 19.19% | 5.61% | – (GI% < 5%) | – (GI% < 5%) | – (GI% < 5%) | 13.12 | – (GI% < 5%) | 53.94% | 89.39% | 120.44% | GI% (SK-MEL-2): 115.65%; GI% (MALME-3M): 8.36%; GI% (PC-3): 11.94%; GI% (SNB-19): 86.59%; GI% (U251): 78.07%; GI% (SF-539): 65.68%
COc1ccc(-c2nc3ccccc3s2)cc1OCC(=O)NN=C1C(=O)Nc2ccc(Br)cc21 [Compound 9r, 2-(5-(Benzo[d]thiazol-2-yl)-2-methoxyphenoxy)-N′-(5-bromo-2-oxoindolin-3-ylidene)acetohydrazide] | – (GI% < 5%) | 30.23 | – (GI% < 5%) | – (GI% < 5%) | 7.61% | – (GI% < 5%) | – (GI% < 5%) | 13.12% | 24.52% | – (GI% < 5%) | – (GI% < 5%) | – (GI% < 5%) | 9.47% | – (GI% < 5%) | – (GI% < 5%) | 38.27 | – (GI% < 5%) | – (GI% < 5%) | – (GI% < 5%) | – (GI% < 5%) | GI% (SK-MEL-2): 17.63%; GI% (MALME-3M): 11.71%; GI% (PC-3): 16.13%; GI% (SNB-19): 48.19%; GI% (U251): 30.21%; GI% (SF-539): 21.62%
COc1ccc(-c2nc3ccccc3s2)cc1OCC(=O)NN=C1C(=O)Nc2ccccc21 [Compound 9m, 2-(5-(Benzo[d]thiazol-2-yl)-2-methoxyphenoxy)-N′-(2-oxoindolin-3-ylidene) acetohydrazide] | 10.77% | 41.54 | – (GI% < 5%) | – (GI% < 5%) | 29.93% | – (GI% < 5%) | 12.20% | 23.70% | 11.23% | – (GI% < 5%) | – (GI% < 5%) | – (GI% < 5%) | – (GI% < 5%) | – (GI% < 5%) | – (GI% < 5%) | 18.28 | 5.42% | – (GI% < 5%) | – (GI% < 5%) | – (GI% < 5%) | GI% (SK-MEL-2): – (GI% < 5%); GI% (MALME-3M): – (GI% < 5%); GI% (PC-3): 7.63%; GI% (SNB-19): – (GI% < 5%); GI% (U251): 13.36%; GI% (SF-539): 10.76%
COc1cccc(-c2nc3ccccc3s2)c1OCC(=O)NN=C1C(=O)Nc2ccc(Cl)cc21 [Compound 9k, 2-(2-(Benzo[d]thiazol-2-yl)-6-methoxyphenoxy)-N′-(5-chloro-2-oxoindolin-3-ylidene)acetohydrazide] | 31.91% | 13.42 | – (GI% < 5%) | 14.83% | – (GI% < 5%) | 22.47% | 17.83% | 43.70% | 29.20% | – (GI% < 5%) | 32.61% | 23.55% | – (GI% < 5%) | – (GI% < 5%) | – (GI% < 5%) | 13.16 | – (GI% < 5%) | – (GI% < 5%) | 38.31% | – (GI% < 5%) | GI% (COLO 205): – (GI% < 5%); GI% (SK-MEL-2): 12.78%; GI% (SNB-19): – (GI% < 5%); GI% (U251): – (GI% < 5%); GI% (SF-539): 30.36%
CNC(=O)c1nn(C)c2c1C(C)(C)Cc1cnc(Nc3ccc(N4CCN(C)CC4)cc3)nc1-2 [Milciclib, reference compound] | 96.9% | 99.8 | 89.6% | 116.2% | 88.5% | 99.4% | 101.8% | 97.70% | 94.6% | 83.80% | 109.5% | 92.70% | 87.5% | 114.80% | 78.9% | 94.70 | 84.50% | 92.00% | 84.70% | 120.6% | GI% (COLO 205): 180.1%; GI% (MALME-3M): 108.70%; GI% (PC-3): 92.10%; GI% (SNB-19): 87.7%; GI% (U251): 91.50%; GI% (SF-539): 128.60%
COc1ccc(-c2nc3ccccc3s2)cc1OCC(=O)NN=C1C(=O)Nc2ccc(Cl)cc21 [Compound 9q, 2-(5-(Benzo[d]thiazol-2-yl)-2-methoxyphenoxy)-N′-(5-chloro-2-oxoindolin-3-ylidene)acetohydrazide] | 36.40% | 72.84 | – (GI% < 5%) | 6.74% | 51.82% | 17.57% | 18.57% | 71.36% | 50.00% | – (GI% < 5%) | 12.95% | 12.80% | 23.59% | – (GI% < 5%) | 37.37% | 72.29 | 19.41% | 27.89% | 23.77% | 15.62% | GI% (SK-MEL-2): 56.54%; GI% (MALME-3M): 26.21%; GI% (PC-3): 26.21%; GI% (SNB-19): 63.00%; GI% (U251): 63.50%; GI% (SF-539): 34.10%
